Results as given in ChEMBL document CHEMBL4765295, “Synthesis, pharmacological profile and 2D-QSAR studies of curcumin-amino acid conjugates as potential drug candidates” (Eur J Med Chem, 2020).
Where “and” joins values, the source holds several entries; their conditions need not be identical. Equal entries are not always repeated.

Columns and labels:
Rattus norvegicus [1] = experiment: Anti-inflammatory activity in Wistar rat assessed as inhibition of carrageenan-induced paw edema at 10 mg/kg, ip pretreated for 1 hr followed by carrageenan challenge and measured after 4 hr relative to control (reference value: 0.00 +/-0.4 %); assay type: functional; conditions: time 5 hrs
Mus musculus [2] = experiment: Analgesic activity in albino mouse assessed as protection at 10 mg/kg, ip measured after 60 mins by hot plate test (reference value: 0 %); assay type: functional; conditions: 1 h
Splenocyte [3] = experiment: Immunomodulatory activity in Swiss albino mouse splenocytes assessed as cell viability at 10 uM by measuring stimulation index incubated for 72 hrs in presence of mitogenic stimulus phytohaemagglutinin by MTT assay (reference value: 1.00 +/- 0.24); assay type: functional
Rattus norvegicus [4] = experiment: Antiinflammatory activity in Wistar rat model of carrageenan-induced paw edema assessed as reduction in thickness of paw edema at 10 mg/kg, ip pretreated for 1 hr followed by carrageenan challenge and measured after 4 hrs (reference value: 1.40 +/-0.10 mm); assay type: functional; conditions: time 5 hrs
Mus musculus [5] = experiment: Analgesic activity in albino mouse assessed reduction in acetic acid-induced abdominal writhing by measuring writing reflex at 10 mg/kg, ip pretreated for 1 hr followed by acetic acid challenge and measured starting 5 mins post acetic acid challenge for 10 mins (reference value: 42.4 +/- 1.02); assay type: functional; conditions: time 75 min, 1.25 h
Peritoneal macrophage [6] = experiment: Antiinflammatory activity in […] mouse Peritoneal macrophages assessed as inhibition of LPS-induced NO production at 10 uM preincubated for 1 hr followed by LPS stimulation measured after 24 hrs by Griess method relative to control (reference value: 0.0 %); assay type: functional; parameters: scale not given: the % may be the effect or the level left; conditions: time 25 hrs
Mus musculus [7] = experiment: Analgesic activity in albino mouse assessed as forepaw licking/jumping latency time at 10 mg/kg, ip measured after 30 mins by hot plate test (reference value: 5.02 +/- 0.09 sec); assay type: functional; conditions: 0.5 h
Rattus norvegicus [8] = experiment: Anti-inflammatory activity in Wistar rat assessed as inhibition of carrageenan-induced paw edema at 10 mg/kg, ip pretreated for 1 hr followed by carrageenan challenge and measured after 3 hr relative to control (reference value: 0.00 +/-0.1 %); assay type: functional; conditions: time 4 hrs
Staphylococcus aureus = experiment: Antibacterial activity against Staphylococcus aureus ATCC 25923 incubated for 18 hrs by agar dilution method; assay type: functional
Salmonella typhimurium = experiment: Antibacterial activity against Salmonella typhimurium ATCC 19430 incubated for 18 hrs by agar dilution assay; assay type: functional, Salmonella enterica subsp. enterica serovar Typhimurium; conditions: Salmonella enterica
Pseudomonas aeruginosa = experiment: Antibacterial activity against Pseudomonas aeruginosa ATCC 27853 incubated for 18 hrs by agar dilution assay; assay type: functional
Rattus norvegicus [9] = experiment: Antiinflammatory activity in Wistar rat model of carrageenan-induced paw edema assessed as reduction in thickness of paw edema at 10 mg/kg, ip pretreated for 1 hr followed by carrageenan challenge and measured after 1 hr (reference value: 2.41 +/-0.05 mm); assay type: functional; conditions: time 1 hr after carrageenan
[10] = Ulcerogenic activity in fasted albino mouse assessed as ulcer index in gastric mucosa at 10 mg/kg, po for 3 days (reference value: 0); assay type: toxicity, organism-based; conditions: in vivo, 72 h, time 3 day
PC-3 = experiment: Antiproliferative activity against human PC3 cells assessed as inhibition of cell growth after 72 hrs by MTT assay; assay type: functional, cell-based; conditions: PC-3, 72 h
[11] = Ulcerogenic activity in fasted albino mouse assessed as average severity of ulcers in gastric mucosa at 10 mg/kg, po for 3 days (reference value: 0); assay type: toxicity, organism-based; conditions: in vivo, 72 h, time 3 day
[12] = Ulcerogenic activity in fasted albino mouse assessed as average number of ulcers in gastric mucosa at 10 mg/kg, po for 3 days (reference value: 0); assay type: toxicity, organism-based; conditions: in vivo, 72 h, time 3 day
Mus musculus [13] = experiment: Analgesic activity in albino mouse assessed as protection at 10 mg/kg, ip measured after 120 mins by hot plate test relative to indomethacin; assay type: functional; conditions: 2 h
Rattus norvegicus [14] = experiment: Antiinflammatory activity in Wistar rat model of carrageenan-induced paw edema assessed as reduction in thickness of paw edema at 10 mg/kg, ip pretreated for 1 hr followed by carrageenan challenge and measured after 3 hrs (reference value: 1.79 +/-0.07 mm); assay type: functional; conditions: time 4 hrs
[15] = Toxicity in albino mouse assessed as induction of toxic symptoms at 50 to 100 mg/kg, ip measured after 24 hrs; assay type: organism-based; conditions: in vivo, dose 50-100 mg/kg
Splenocyte [16] = experiment: Immunomodulatory activity in Swiss albino mouse splenocytes assessed as cell viability at 10 uM by measuring inhibition of stimulation index incubated for 72 hrs in presence of mitogenic stimulus phytohaemagglutinin by MTT assay relative to indomethacin; assay type: functional; conditions: read-out: Activity
Rattus norvegicus [17] = experiment: Antiinflammatory activity in Wistar rat model of carrageenan-induced paw edema assessed as reduction in thickness of paw edema at 10 mg/kg, ip pretreated for 1 hr followed by carrageenan challenge and measured after 24 hrs (reference value: 0.83 +/-0.08 mm); assay type: functional; conditions: time 25 hrs
Mus musculus [18] = experiment: Analgesic activity in albino mouse assessed protection against acetic acid-induced abdominal writhing at 10 mg/kg, ip pretreated for 1 hr followed by acetic acid challenge and measured starting 5 mins post acetic acid challenge for 10 mins relative to indomethacin; assay type: functional; conditions: time 75 min, 1.25 h
Rattus norvegicus [19] = experiment: Antiinflammatory activity in Wistar rat model of carrageenan-induced paw edema assessed as reduction in thickness of paw edema at 10 mg/kg, ip pretreated for 1 hr followed by carrageenan challenge and measured after 2 hrs (reference value: 2.06 +/-0.09 mm); assay type: functional; conditions: time 3 hrs
Candida albicans = experiment: Antifungal activity against Candida albicans incubated for 18 to 24 hrs by CLSI method; assay type: functional; conditions: time 18-24 hrs
Peritoneal macrophage [20] = experiment: Antiinflammatory activity in […] mouse Peritoneal macrophages assessed as reduction in LPS-induced NO production by measuring reduction in stimulation index at 10 uM preincubated for 1 hr followed by LPS stimulation measured after 24 hrs by Griess method (reference value: 27.31 +/- 2.56 uM); assay type: functional; conditions: time 25 hrs
Streptococcus pyogenes = experiment: Antibacterial activity against Streptococcus pyogenes ATCC 19615 incubated for 18 hrs by agar dilution method; assay type: functional
Rattus norvegicus [21] = experiment: Anti-inflammatory activity in Wistar rat assessed as inhibition of carrageenan-induced paw edema at 10 mg/kg, ip pretreated for 1 hr followed by carrageenan challenge and measured after 1 hr relative to control (reference value: 0.00 +/-0.02 %); assay type: functional; conditions: time 2 hrs
A549 = experiment: Antiproliferative activity against human A549 cells assessed as inhibition of cell growth after 72 hrs by MTT assay; assay type: functional, cell-based; conditions: A549, 72 h
Mus musculus [22] = experiment: Analgesic activity in albino mouse assessed as forepaw licking/jumping latency time at 10 mg/kg, ip measured after 90 mins by hot plate test (reference value: 2.72 +/- 0.01 sec); assay type: functional; conditions: 1.5 h
Rattus norvegicus [23] = experiment: Anti-inflammatory activity in Wistar rat assessed as inhibition of carrageenan-induced paw edema at 10 mg/kg, ip pretreated for 1 hr followed by carrageenan challenge and measured after 4 hr relative to indomethacin; assay type: functional; conditions: time 5 hrs
Mus musculus [24] = experiment: Analgesic activity in albino mouse assessed protection against acetic acid-induced abdominal writhing at 10 mg/kg, ip pretreated for 1 hr followed by acetic acid challenge and measured starting 5 mins post acetic acid challenge for 10 mins relative to control (reference value: 0 %); assay type: functional; conditions: time 75 min, 1.25 h
Mus musculus [25] = experiment: Analgesic activity in albino mouse assessed as protection at 10 mg/kg, ip measured after 120 mins by hot plate test (reference value: 0 %); assay type: functional; conditions: 2 h
Rattus norvegicus [26] = experiment: Anti-inflammatory activity in Wistar rat assessed as inhibition of carrageenan-induced paw edema at 10 mg/kg, ip pretreated for 1 hr followed by carrageenan challenge and measured after 24 hr relative to control (reference value: 0.00 +/-0.3 %); assay type: functional; conditions: time 25 hrs
MCF7 = experiment: Antiproliferative activity against human MCF7 cells assessed as inhibition of cell growth after 72 hrs by MTT assay; assay type: functional, cell-based; conditions: MCF7, 72 h
Rattus norvegicus [27] = experiment: Anti-inflammatory activity in Wistar rat assessed as inhibition of carrageenan-induced paw edema at 10 mg/kg, ip pretreated for 1 hr followed by carrageenan challenge and measured after 2 hr relative to control (reference value: 0.00 +/-0.03 %); assay type: functional; conditions: time 3 hrs
Mus musculus [28] = experiment: Analgesic activity in albino mouse assessed as protection at 10 mg/kg, ip measured after 90 mins by hot plate test (reference value: 0 %); assay type: functional; conditions: 1.5 h
Mus musculus [29] = experiment: Analgesic activity in albino mouse assessed as forepaw licking/jumping latency time at 10 mg/kg, ip measured after 120 mins by hot plate test (reference value: 2.62 +/- 0.06 sec); assay type: functional; conditions: 2 h
[30] = Ulcerogenic activity in fasted albino mouse assessed as incidence of gastric ulceration at 10 mg/kg, po for 3 days (reference value: 0 %); assay type: toxicity, organism-based; conditions: in vivo, 72 h, time 3 day
Mus musculus [31] = experiment: Analgesic activity in albino mouse assessed as protection at 10 mg/kg, ip measured after 30 mins by hot plate test (reference value: 0 %); assay type: functional; conditions: 0.5 h
Mus musculus [32] = experiment: Analgesic activity in albino mouse assessed as forepaw licking/jumping latency time at 10 mg/kg, ip measured after 60 mins by hot plate test (reference value: 3.42 +/- 0.03 sec); assay type: functional; conditions: 1 h

MIC (Staphylococcus aureus): 0.125 µg/mL and 0.214 µM
MIC (Salmonella typhimurium): 0.25 µg/mL and 0.428 µM
MIC (Pseudomonas aeruginosa): 1 µg/mL and 1.71 µM
IC50 (PC-3): 30.7 µM
MIC (Candida albicans): 0.125 µg/mL and 0.214 µM
MIC (Streptococcus pyogenes): 0.25 µg/mL and 0.428 µM
IC50 (A549): 30.9 µM
IC50 (MCF7): 10.4 µM
SMILES: COc1cc(/C=C/C(=O)/C=C(O)/C=C/c2ccc(OC(=O)[C@@H](C)N)c(OC)c2)ccc1OC(=O)[C@@H](C)N.Cl.Cl
inhibition in vivo at 10 mg/kg (Rattus norvegicus [1]): 96%
Activity (Mus musculus [2]): 70.2%
Activity_index (Splenocyte [3]): 1.35
Activity (Rattus norvegicus [4]): 0.06 mm
Activity (Mus musculus [5]): 13.8
Activity (Peritoneal macrophage [6]): 41.26%
Time (Mus musculus [7]): 5.3 s
inhibition in vivo at 10 mg/kg (Rattus norvegicus [8]): 74%
Activity (Rattus norvegicus [9]): 0.95 mm
UI [10]: 0
Activity [11]: 0
Activity [12]: 0
Activity (Mus musculus [13]): 127.1%
Activity (Rattus norvegicus [14]): 0.46 mm
Activity [15]: Non-Toxic
viability at 10 µM (Splenocyte [16]): 89.6%
Activity (Rattus norvegicus [17]): 0.59 mm
Activity (Mus musculus [18]): 109.6%
Activity (Rattus norvegicus [19]): 0.79 mm
Activity (Peritoneal macrophage [20]): 16.04 µM
inhibition in vivo at 10 mg/kg (Rattus norvegicus [21]): 61%
Time (Mus musculus [22]): 4.72 s
inhibition in vivo at 10 mg/kg (Rattus norvegicus [23]): 110%
Activity (Mus musculus [24]): 67.5%
Activity (Mus musculus [25]): 53.4%
inhibition in vivo at 10 mg/kg (Rattus norvegicus [26]): 29%
inhibition in vivo at 10 mg/kg (Rattus norvegicus [27]): 62%
Activity (Mus musculus [28]): 73.5%
Time (Mus musculus [29]): 4.02 s
Activity [30]: 0%
Activity (Mus musculus [31]): 5.6%
Time (Mus musculus [32]): 5.82 s
